Results published in patent US7777073B2, “Topical delivery system for antiaging and skin whitening agents” (Bioderm Research, priority 2004, dated 2010).
“Also recorded” adds a separate entry of the source. Like-named read-outs stand apart in the source and are kept apart here.

Assays:
mushroom tyrosinase = experiment: Inhibition of tyrosinase, kinetic analysis; assay type: biochemical; conditions: for IC50: 20 C, phosphate buffer 100 mM, pH 6.8, read-out: Tyrosinase Inhibitory Concentration
Description: Method. Kinetic analysis of 2,4 DHA inhibition.
All reactions were performed at 20 C, in phosphate buffer 100 mM, pH 6.8, mushroom tyrosinase.

MMP-9 = molecular target: T1, MMP-9 (Homo sapiens, UniProt P14780); experiment: In vitro inhibition of MMP-9 (Biomol assay kit); assay type: biochemical; conditions: read-out: 50% Inhibition Concentration MMP-9 (converted)
T1 construct: purchased Biomol Corporation
T1 sequence (P14780 107-444 limits assumed, species assumed): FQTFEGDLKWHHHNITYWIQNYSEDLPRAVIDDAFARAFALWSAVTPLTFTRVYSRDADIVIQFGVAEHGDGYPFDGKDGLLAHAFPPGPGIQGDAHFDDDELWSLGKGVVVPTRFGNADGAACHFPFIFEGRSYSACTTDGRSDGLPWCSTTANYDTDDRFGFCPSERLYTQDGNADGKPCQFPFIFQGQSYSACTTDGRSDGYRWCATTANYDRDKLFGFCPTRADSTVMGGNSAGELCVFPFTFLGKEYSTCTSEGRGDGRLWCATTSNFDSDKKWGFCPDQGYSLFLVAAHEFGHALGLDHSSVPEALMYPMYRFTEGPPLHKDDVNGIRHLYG
Source text: (§1) In vitro specific inhibition of MMP-2 and MMP-9 activity by [R]-(N-[(2,4-dihydroxyphenyl)ethyl]glycine and [S]-N-[(2,4-dihydroxyphenyl)ethyl]glycine was estimated with assay kits from Biomol Corporation. Recombinant human MMP-1 enzyme was obtained from R&D Systems. The enzyme was first activated with APMA according to the protocol provided by R&D Systems. The experimental conditions for the screening of MMP-1 inhibitors were similar to the settings used for MMP-2 and MMP-9 testing.
(§2) In vitro inhibition of MMP1, 2 and 9 for several samples (mcg=micro-grams).

MMP-2 = molecular target: T2, MMP-2 (Homo sapiens, UniProt P08253); experiment: In vitro inhibition of MMP-2 (Biomol assay kit); assay type: biochemical; conditions: read-out: 50% Inhibition Concentration MMP-2 (converted)
T2 construct: purchased Biomol Corporation
T2 sequence (P08253 110-452 limits assumed, species assumed): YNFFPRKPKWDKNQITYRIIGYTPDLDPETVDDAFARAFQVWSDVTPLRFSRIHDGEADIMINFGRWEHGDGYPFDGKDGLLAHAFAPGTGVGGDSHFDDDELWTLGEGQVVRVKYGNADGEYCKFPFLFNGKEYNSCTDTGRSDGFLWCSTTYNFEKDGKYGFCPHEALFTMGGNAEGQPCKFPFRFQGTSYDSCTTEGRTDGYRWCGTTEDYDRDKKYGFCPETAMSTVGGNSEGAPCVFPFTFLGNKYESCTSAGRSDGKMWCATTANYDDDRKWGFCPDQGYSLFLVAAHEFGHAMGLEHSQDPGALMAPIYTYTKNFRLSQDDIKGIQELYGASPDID
Source text: as §1, §2

skin = experiment: Differences in antiaging and skin whitening affect of [S] and [R] isomers
Matrix metalloproteases = experiment: In vitro inhibition of Matrix metalloproteases, overall assessment; assay type: biochemical
Source text: as §1

[1] = molecular target: T3, Recombinant human MMP-1 enzyme (Homo sapiens, UniProt P03956); experiment: In vitro inhibition of MMP-1; assay type: biochemical; conditions: enzyme activated with APMA, read-out: 50% Inhibition Concentration MMP-1 (converted)
T3 construct: purchased R&D Systems
T3 sequence (P03956 100-469): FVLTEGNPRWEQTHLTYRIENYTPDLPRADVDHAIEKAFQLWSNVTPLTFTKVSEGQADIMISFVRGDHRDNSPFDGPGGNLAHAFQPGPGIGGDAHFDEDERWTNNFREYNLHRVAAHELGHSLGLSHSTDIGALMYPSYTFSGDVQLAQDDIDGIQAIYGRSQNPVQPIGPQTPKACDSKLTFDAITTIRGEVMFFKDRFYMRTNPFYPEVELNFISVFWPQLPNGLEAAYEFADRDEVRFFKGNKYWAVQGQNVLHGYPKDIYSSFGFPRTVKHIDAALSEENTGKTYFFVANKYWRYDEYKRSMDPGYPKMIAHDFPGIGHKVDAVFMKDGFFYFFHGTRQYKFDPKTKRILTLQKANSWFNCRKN
Source text: as §1, §2

| SMILES | IC50 (mushroom tyrosinase) | IC50 (MMP-9) | IC50 (MMP-2) | Tyrosinase inhibition (in words) (mushroom tyrosinase) | Tyrosinase inhibition (in words) (mushroom tyrosinase; listed as [R]-(N-[(2,4-dihydroxyphenyl)ethyl]glycine)) | Skin whitening benefits, [R] versus [S] isomer (skin) | MMP inhibition (in words) (Matrix metalloproteases; MMP1, 2 and 9) | MMP inhibition (in words) (Matrix metalloproteases; MMP1, 2 and 9, listed as [R]-(N-[(2,4-dihydroxyphenyl)ethyl]glycine)) | IC50 [1] | Antiwrinkle properties, [S] versus [R] isomer (skin) |
| --- | --- | --- | --- | --- | --- | --- | --- | --- | --- | --- |
| OC[C@H]1O[C@@H](Oc2ccc(O)cc2)[C@H](O)[C@@H](O)[C@@H]1O [Arbutin, reference compound] | 25 mM |  |  |  |  |  |  |  |  |  |
| C[C@@H](NCC(=O)O)c1ccc(O)cc1O | 5 mM | 94.7 µM | 71 µM | excellent inhibitor | anti-tyrosinase activity | better skin whitening benefits | very good and general inhibition | MMP inhibition | 94.7 µM |  |
| C[C@H](NCC(=O)O)c1ccc(O)cc1O [[S]-N-[(2,4-dihydroxyphenyl)ethyl]glycine] | 10 mM | 284 µM | 189 µM | anti-tyrosinase activity; also recorded: excellent inhibitor |  |  | MMP inhibition; also recorded: just a bit weaker, but still quite acceptable |  | 166 µM | better antiwrinkle properties |
